Test results as given in patent publication US6203976A, “Methods of preparing compositions comprising chemicals capable of transcriptional modulation” (OSI Pharmaceuticals, Inc., priority 1994, dated 2001).

Legend:
[1] = tested on: human G-CSF (G21) promoter; assay: High-throughput luciferase reporter assay, G-CSF promoter (Screen III); conditions: G21 cells, 6 hours; for FOLD INHIBITION RELATIVE TO SOLVENT CONTROL, GCSF: Screen III inhibitors; for FOLD INDUCTION RELATIVE TO SOLVENT CONTROL, GCSF: Screen III activators
[2] = tested on: human growth hormone (532) promoter; assay: High-throughput luciferase reporter assay, human Growth Hormone promoter (Screen III); type: cell-based; conditions: 532 cells, 6 hours; for FOLD INHIBITION RELATIVE TO SOLVENT CONTROL, hGH: Screen III inhibitors; for FOLD INDUCTION RELATIVE TO SOLVENT CONTROL, hGH: Screen III activators
MMTV (M10) promoter = assay: High-throughput luciferase reporter assay, MMTV promoter (Screen III); type: cell-based, mouse; conditions: M10 cells, 6 hours; for FOLD INHIBITION RELATIVE TO SOLVENT CONTROL, MMTV: Screen III inhibitors; for FOLD INDUCTION RELATIVE TO SOLVENT CONTROL, MMTV: Screen III activators
Experimental: pMluci and pSV2Neo, an antibiotic resistance plasmid (112), were co-transfected into NIH/3T3 mouse fibroblast cells using the calcium phosphate precipitation method (103) with a commercially available kit (Pharmacia, Piscataway N.J.). Two days later, cells were transferred to media containing 0.4 mg/ml G418 and were grown for an additional 10-14 days. G418-resistant clones were isolated by standard methods. Once sufficient cell numbers were obtained, clones were analyzed based on several criteria: constitutive luciferase production, induction of luciferase expression by dexamethasone (1 μm, Sigma, St. Louis, Mo.), satisfactory attachment to microtiter plates used in the high-throughput screen and acceptable standard deviation in multiple luciferase expression assays (see below for assay protocol). This analysis was carried out using the luciferase assay conditions described above. Of the clones which satisfied the above criteria for the high throuphput screen, one clone, M10, was selected for use.

N#Cc1cccc(Br)c1 [compound 1703]
FOLD INHIBITION RELATIVE TO SOLVENT CONTROL, GCSF [1]: 0.76 fold | FOLD INHIBITION RELATIVE TO SOLVENT CONTROL, hGH [2]: 10.00 fold | FOLD INHIBITION RELATIVE TO SOLVENT CONTROL, MMTV (MMTV (M10) promoter): 0.90 fold

N#Cc1ccc(Br)cc1 [compound 1704]
FOLD INHIBITION RELATIVE TO SOLVENT CONTROL, GCSF [1]: 0.77 fold | FOLD INHIBITION RELATIVE TO SOLVENT CONTROL, hGH [2]: 4.16 fold | FOLD INHIBITION RELATIVE TO SOLVENT CONTROL, MMTV (MMTV (M10) promoter): 0.94 fold

O=C(c1ccccc1)c1ccc(Br)cc1 [compound 1705]
FOLD INHIBITION RELATIVE TO SOLVENT CONTROL, GCSF [1]: 0.54 fold | FOLD INHIBITION RELATIVE TO SOLVENT CONTROL, hGH [2]: 14.28 fold | FOLD INHIBITION RELATIVE TO SOLVENT CONTROL, MMTV (MMTV (M10) promoter): 0.62 fold

Cc1cc(=O)oc2c(CN(CC(=O)O)CC(=O)O)c(O)ccc12 [compound 1712]
FOLD INHIBITION RELATIVE TO SOLVENT CONTROL, GCSF [1]: 0.74 fold | FOLD INHIBITION RELATIVE TO SOLVENT CONTROL, hGH [2]: 8.33 fold | FOLD INHIBITION RELATIVE TO SOLVENT CONTROL, MMTV (MMTV (M10) promoter): 0.94 fold

CCOC(=O)c1c[nH]c(=S)[nH]c1=O [compound 1740]
FOLD INDUCTION RELATIVE TO SOLVENT CONTROL, GCSF [1]: 0.74 fold | FOLD INDUCTION RELATIVE TO SOLVENT CONTROL, hGH [2]: 17.77 fold | FOLD INDUCTION RELATIVE TO SOLVENT CONTROL, MMTV (MMTV (M10) promoter): 0.87 fold

N[C@@H](CCCCNC(=O)OCc1ccccc1)C(=O)O [compound 1747]
FOLD INDUCTION RELATIVE TO SOLVENT CONTROL, GCSF [1]: 0.78 fold | FOLD INDUCTION RELATIVE TO SOLVENT CONTROL, hGH [2]: 6.16 fold | FOLD INDUCTION RELATIVE TO SOLVENT CONTROL, MMTV (MMTV (M10) promoter): 0.86 fold

Cc1cc(=O)oc2cc(OCC(=O)O)ccc12 [compound 1764]
FOLD INHIBITION RELATIVE TO SOLVENT CONTROL, GCSF [1]: 0.55 fold | FOLD INHIBITION RELATIVE TO SOLVENT CONTROL, hGH [2]: 7.14 fold | FOLD INHIBITION RELATIVE TO SOLVENT CONTROL, MMTV (MMTV (M10) promoter): 0.82 fold

Cc1c(C(=O)O)c(O)cc2c1C(=O)c1c(O)c([C@@H]3O[C@H](CO)[C@@H](O)[C@H](O)[C@H]3O)c(O)c(O)c1C2=O [compound 1770]
FOLD INHIBITION RELATIVE TO SOLVENT CONTROL, GCSF [1]: 0.54 fold | FOLD INHIBITION RELATIVE TO SOLVENT CONTROL, hGH [2]: 10.00 fold | FOLD INHIBITION RELATIVE TO SOLVENT CONTROL, MMTV (MMTV (M10) promoter): 0.57 fold

NCCC(=O)N[C@@H](Cc1cnc[nH]1)C(=O)O [compound 1771]
FOLD INHIBITION RELATIVE TO SOLVENT CONTROL, GCSF [1]: 0.71 fold | FOLD INHIBITION RELATIVE TO SOLVENT CONTROL, hGH [2]: 10.00 fold | FOLD INHIBITION RELATIVE TO SOLVENT CONTROL, MMTV (MMTV (M10) promoter): 0.72 fold

Cc1cc(C2(c3cc(C)c(O)c(CN(CC(=O)O)CC(=O)O)c3)OC(=O)c3ccccc32)cc(CN(CC(=O)O)CC(=O)O)c1O [compound 1773]
FOLD INHIBITION RELATIVE TO SOLVENT CONTROL, GCSF [1]: 0.62 fold | FOLD INHIBITION RELATIVE TO SOLVENT CONTROL, hGH [2]: 10.00 fold | FOLD INHIBITION RELATIVE TO SOLVENT CONTROL, MMTV (MMTV (M10) promoter): 0.67 fold

N=c1cc2oc3cc(N)ccc3nc-2c2ccccc12 [compound 1776]
FOLD INDUCTION RELATIVE TO SOLVENT CONTROL, GCSF [1]: 3.50 fold | FOLD INDUCTION RELATIVE TO SOLVENT CONTROL, hGH [2]: 0.15 fold | FOLD INDUCTION RELATIVE TO SOLVENT CONTROL, MMTV (MMTV (M10) promoter): 1.36 fold

CN(C)C(=S)SCC#N [compound 1793]
FOLD INDUCTION RELATIVE TO SOLVENT CONTROL, GCSF [1]: 9.50 fold | FOLD INDUCTION RELATIVE TO SOLVENT CONTROL, hGH [2]: 0.52 fold | FOLD INDUCTION RELATIVE TO SOLVENT CONTROL, MMTV (MMTV (M10) promoter): 1.21 fold

O=C(O)C1CCC1 [compound 1804]
FOLD INDUCTION RELATIVE TO SOLVENT CONTROL, GCSF [1]: 1.05 fold | FOLD INDUCTION RELATIVE TO SOLVENT CONTROL, hGH [2]: 9.41 fold | FOLD INDUCTION RELATIVE TO SOLVENT CONTROL, MMTV (MMTV (M10) promoter): 0.49 fold

O=c1[nH]c(=O)c2nc3ccccc3nc2[nH]1 [compound 1890]
FOLD INHIBITION RELATIVE TO SOLVENT CONTROL, GCSF [1]: 0.80 fold | FOLD INHIBITION RELATIVE TO SOLVENT CONTROL, hGH [2]: 5.26 fold | FOLD INHIBITION RELATIVE TO SOLVENT CONTROL, MMTV (MMTV (M10) promoter): 0.58 fold

Nc1c2ccccc2nc2ccccc12 [compound 1904]
FOLD INDUCTION RELATIVE TO SOLVENT CONTROL, GCSF [1]: 4.12 fold | FOLD INDUCTION RELATIVE TO SOLVENT CONTROL, hGH [2]: 0.54 fold | FOLD INDUCTION RELATIVE TO SOLVENT CONTROL, MMTV (MMTV (M10) promoter): 0.82 fold

Brc1cccc(-c2ccccc2)c1 [compound 1994]
FOLD INDUCTION RELATIVE TO SOLVENT CONTROL, GCSF [1]: 3.29 fold | FOLD INDUCTION RELATIVE TO SOLVENT CONTROL, hGH [2]: 0.34 fold | FOLD INDUCTION RELATIVE TO SOLVENT CONTROL, MMTV (MMTV (M10) promoter): 0.63 fold

CC(C)(C)c1ccc(Br)cc1 [compound 2001]
FOLD INDUCTION RELATIVE TO SOLVENT CONTROL, GCSF [1]: 3.11 fold | FOLD INDUCTION RELATIVE TO SOLVENT CONTROL, hGH [2]: 0.74 fold | FOLD INDUCTION RELATIVE TO SOLVENT CONTROL, MMTV (MMTV (M10) promoter): 1.12 fold

Nc1c(Br)cc([N+](=O)[O-])cc1[N+](=O)[O-] [compound 2010]
FOLD INHIBITION RELATIVE TO SOLVENT CONTROL, GCSF [1]: 0.80 fold | FOLD INHIBITION RELATIVE TO SOLVENT CONTROL, hGH [2]: 0.63 fold | FOLD INHIBITION RELATIVE TO SOLVENT CONTROL, MMTV (MMTV (M10) promoter): 3.57 fold
